Results on eleven compounds are retold here after patent US10961202B2, “Bis-benzimidazole compounds and methods of using the same” (THE SCRIPPS RESEARCH INSTITUTE, priority 2017, dated 2021).

Where two headings read alike, the source gives them in different places.

One test has as its system r(CUG)12-MBNL1 complex. The test is described as follows: Inhibition of the r(CUG)12-MBNL1 complex measured by TR-FRET. The test is classed as biochemical. Conditions: 80 nM RNA, 60 nM MBNL1-His6. For orientation: In TR-FRET formats the signal depends on donor and acceptor labels being close together.
Test [1] has as its system MBNL1 exon 5 inclusion in DM1 myotubes. As to the kind of experiment: Myotube splicing rescue assay (MBNL1 exon 5 inclusion). The format is cell-based, human. Conditions: 48-hour incubation.
The subject of test [2] is HSALR strain 20b mice. The test is described as follows: DM1 mouse efficacy study: RT-PCR of MBNL1-dependent splicing targets in gastrocnemius. The format is in vivo. The following applies: sc, subcutaneous.
Test [3] relates to HSALR strain 20b mice. The test is described as above. The format is in vivo. Conditions: sc, 3 mg/kg qod 5 doses, subcutaneous. From the text:
HSALR strain 20b mice were used as a model for myotonic dystrophy type I (DM1) experimental studies when testing the efficacy of candidate compounds. To determine the genotype of the mice, the transgene of human skeletal actin (HSA) genomic level was compared to endogenous mouse skeletal actin (MSA) by PCR. Mice with an HSA:MSA ratio of 2:1, homozygous mice were used for the study. Disease phenotype was confirmed in homozygous HSALR by assessing myotonia by pinching the quadriceps of the mouse. […] Homozygous HSALR that have been confirmed by PCR genotyping HSA:MSA ratio and are positive for pinch myotonia were selected for candidate compound efficacy studies for DM1.
For each study, a control group of PBS injected mice was included along with mice test groups injected with the compound to be tested. For a statistical power >80%, five mice were used per group (three females and two males). As previously indicated, homozygous HSALR mice were selected aged 8-12 weeks at the beginning of the study. Littermate mice were evenly distributed across groups in the study. Each cage contained mice from a single group. Female mice from different litters were combined into one cage for a single test group. Male mice cannot be combined in cages with non-littermate mice. If any fighting occurred in cages with multiple mice, the mice with minor/superficial fight wounds were be separated and monitored. Mice with severe fight wounds were removed from the study. Mice were monitored throughout the study for weight changes over time, behavioral changes at time of injection, and any other potential health concerns that arose during the study.
Mice were injected with approximately ˜200 μL solution subcutaneously by 28-gauge syringe. The volume administered was determined by the weight of the mouse where 10 iaL solution is administered per 1 g of the weight of the mouse. The compound was solubilized in DPBS at a concentration of […], which equated to a dose of 0.1-3.0 mg compound per kg weight of the animal (mpk). Mice were weighed once a week, and the volume of administered compound solution (or DPBS) was adjusted accordingly for correct mpk dosing. Once a compound was tested for acute toxicity in FVB wildtype mice, the compound was typically first tested at 3 mpk, injected every other day (q.o.d.) for five doses, and the mice sacrificed 24 hr after the last injection. Candidate compounds were further tested at different dose regimes to further assess the compound's efficacy in DM1 mice.
For each mouse, blood, brain, heart, liver, kidney, tibialis anterior, gastrocnemius, and quadriceps were dissected and collected. After the mouse was euthanized, blood was collected by cardiac puncture and placed in lithium heparin tubes on ice. Plasma was separated by centrifugation and collected. Brain, heart, half of the liver, tibialis anterior, gastrocnemius, and quadriceps were flash frozen in liquid nitrogen. Half of the liver, kidneys, and subset of heart samples were fixed in 10% formalin. One of the two tibialis anterior muscles was frozen with OCT for cyro-sectioning.
Gastrocnemius muscle was used for downstream RNA extraction RT-PCR. […] Half of one gastrocnemius was used for an RNA extraction. The gastrocnemius was homogenized in Trizol reagent and extracted following the protocol of the Zymo Direct-zol RNA Mini Prep Plus kit.
For each RNA sample, 500 ng of RNA was used for a reverse transcription reaction to produce single-stranded cDNA. MBNL1-dependent splicing targets (Clcn1 exon 7a, Mbnl1 exon 5, Sercal exon 22, and Zasp exon 11) and MBNL1-independent splicing targets (Capzb exon 8, Itgb1 exon 17) were assessed by RT-PCR. For the alternative exons listed, forward and reverse primers were designed to amplify the alternative exon along with the flanking constitutive exons such that one primer may produce two PCR products: one PCR product including the alternative exon and one PCR product excluding the alternative exon. […]

Setting [4] is: 7.5 mg/kg qod 8 doses, read-out: Clcn1 exon 7a splicing rescue %.
[5] abbreviates: 7.5 mg/kg qod 8 doses, read-out: Mbnl1 exon 5 splicing rescue %.
Where [6] appears, read: 7.5 mg/kg qod 8 doses, read-out: Serca1 exon 22 splicing rescue %.
The mark [7] stands for this setting: 7.5 mg/kg qod 8 doses, read-out: Zasp exon 11 splicing rescue %.
The mark [8] stands for this setting: 7.5 mg/kg qod 5 doses, read-out: Clcn1 exon 7a splicing rescue %.
[9] abbreviates: 7.5 mg/kg qod 5 doses, read-out: Mbnl1 exon 5 splicing rescue %.
Where [10] appears, read: 7.5 mg/kg qod 5 doses, read-out: Serca1 exon 22 splicing rescue %.
The mark [11] stands for this setting: read-out: Clcn1 exon 7a splicing rescue %.
The mark [12] stands for this setting: read-out: Mbnl1 exon 5 splicing rescue %.
[13] abbreviates: read-out: Serca1 exon 22 splicing rescue %.
The mark [14] stands for this setting: read-out: Zasp exon 11 splicing rescue %.

For `CN(C)CCCOc1ccc2nc(-c3ccc(-c4nc5ccc(OCCCN(C)C)cc5[nH]4)cc3)[nH]c2c1` [Compound 58, 3,3′-((2,2′-(1,4-phenylene)bis(1H-benzo[d]imidazole-6,2-diyl))bis(oxy))bis(N,N-dimethylpropan-1-amine)], in the test on r(CUG)12-MBNL1 complex (Table L), the IC50 (usually the concentration at which inhibition is half-maximal) came to 19.8 µM. For the same compound, the “MBNL1 % splicing rescue at 1 μM” value in test [1] stood at 11.0%. Further, the “MBNL1 % splicing rescue at 10 μM” value in test [1] amounted to 79.1%. Also, the percent splicing rescue at 7.5 mg/kg in the test on HSALR strain 20b mice [2] (setting [4]) is 68.3%; in the test with HSALR strain 20b mice [2] (setting [5]), 80.2%; in the test on HSALR strain 20b mice [2] (setting [6]), 90.5%; in the test with HSALR strain 20b mice [2] (setting [7]) it was 102%.
The compound `CN(C)CCCSc1ccc2nc(-c3ccc(-c4nc5ccc(SCCCN(C)C)cc5[nH]4)cc3)[nH]c2c1` [Compound 60, 3,3′-((2,2′-(1,4-phenylene)bis(1H-benzo[d]imidazole-6,2-diyl))bis(sulfanediyl))bis(N,N-dimethylpropan-1-amine)] came in with an IC50 in the test on r(CUG)12-MBNL1 complex (Table L) of 40 µM. For the same compound, in test [1], the “MBNL1 % splicing rescue at 1 μM” value is 18.9%. Also, the “MBNL1 % splicing rescue at 10 μM” value in test [1] stood at 80.9%. The percent splicing rescue at 7.5 mg/kg with HSALR strain 20b mice [2] (setting [8]) came out at 87.7%; in the test with HSALR strain 20b mice [2] (setting [9]), 95.3%; with HSALR strain 20b mice [2] (setting [10]), 86%; in the test on HSALR strain 20b mice [2] (7.5 mg/kg qod 5 doses, read-out: Zasp exon 11 splicing rescue %) it was 88.3%.
In the test on r(CUG)12-MBNL1 complex (Table L), `Nc1ccc2nc(-c3ccc(-c4nc5ccc(NC6=NCCN6C6=NCCN6)cc5[nH]4)cc3)[nH]c2c1` [Compound 75, 2-(4-(6-amino-1H-benzo[d]imidazol-2-yl)phenyl)-N-(4,4′,5,5′-tetrahydro-1H-[1,2′-biimidazol]-2-yl)-1H-benzo[d]imidazol-6-amine] yielded an IC50 of 3.2 µM. For the same compound, in test [1], the “MBNL1 % splicing rescue at 10 μM” value was 0.0%. The percent splicing rescue at 30 mg/kg in the test with HSALR strain 20b mice [2] (30 mg/kg qd 7 doses, read-out: Clcn1 exon 7a splicing rescue %) worked out at 39.4%; in the test on HSALR strain 20b mice [2] (30 mg/kg qd 7 doses, read-out: Mbnl1 exon 5 splicing rescue %) it was 93.9%; in the test on HSALR strain 20b mice [2] (30 mg/kg qd 7 doses, read-out: Serca1 exon 22 splicing rescue %), 50%; in the test with HSALR strain 20b mice [2] (30 mg/kg qd 7 doses, read-out: Zasp exon 11 splicing rescue %), 95.6%.
Turning to `CN(C)CCNC(=O)c1ccc(-c2nc3cc(-c4ccc5[nH]c(-c6ccc(C(=O)NCCN(C)C)cc6)nc5c4)ccc3[nH]2)cc1` [Compound 108, 4,4′-(1H,1′H-[5,5′-bibenzo[d]imidazole]-2,2′-diyl)bis(N-(2-(dimethylamino)ethyl)benzamide)], the IC50 in the test on r(CUG)12-MBNL1 complex (Table L) came out at 13 µM. For the same compound, the “MBNL1 % splicing rescue at 1 μM” value in test [1] was 0.0%. Besides, the “MBNL1 % splicing rescue at 10 μM” value in test [1] worked out at 63.4%. Also, the percent splicing rescue at 30 mg/kg is 32.5% in the test on HSALR strain 20b mice [2] (30 mg/kg qod 8 doses, read-out: Clcn1 exon 7a splicing rescue %); 57.4% in the test with HSALR strain 20b mice [2] (30 mg/kg qod 8 doses, read-out: Mbnl1 exon 5 splicing rescue %); 59.1% in the test on HSALR strain 20b mice [2] (30 mg/kg qod 8 doses, read-out: Serca1 exon 22 splicing rescue %); 50.1% in the test with HSALR strain 20b mice [2] (30 mg/kg qod 8 doses, read-out: Zasp exon 11 splicing rescue %).
The compound `CN(C)CCCOc1ccc(-c2nc3cc(-c4ccc5[nH]c(-c6ccc(OCCCN(C)C)cc6)nc5c4)ccc3[nH]2)cc1` [Compound 152] displayed an IC50 in the test with r(CUG)12-MBNL1 complex (Table L) of 10.7 µM. Further, the “MBNL1 % splicing rescue at 1 μM” value in test [1] is reported as 85.4%. The “MBNL1 % splicing rescue at 10 μM” value in test [1] turned out to be 79.8%. The percent splicing rescue at 7.5 mg/kg in the test with HSALR strain 20b mice [2] (setting [5]) is 40.6%; in the test on HSALR strain 20b mice [2] (setting [6]), -19.8%; with HSALR strain 20b mice [2] (setting [7]) it was 46.1%.
`CN(C)CCOc1ccc(-c2nc3cc(-c4ccc5[nH]c(-c6ccc(OCCN(C)C)cc6)nc5c4)ccc3[nH]2)cc1` [Compound 153] gave an IC50 in the test on r(CUG)12-MBNL1 complex (Table L) of 29 µM. Also, the “MBNL1 % splicing rescue at 1 μM” value in test [1] was found to be 82.1%. Further, the “MBNL1 % splicing rescue at 10 μM” value in test [1] came to 106.1%. The percent splicing rescue at 7.5 mg/kg with HSALR strain 20b mice [2] (setting [4]) is 48.4%; in the test on HSALR strain 20b mice [2] (setting [5]) it was 40.8%; in the test with HSALR strain 20b mice [2] (setting [6]) it was 34%; in the test with HSALR strain 20b mice [2] (setting [7]) it was 59.7%.
Regarding `c1cc2nc(-c3ccc(-c4nc5ccc(OCCCN6CCCCC6)cc5[nH]4)cc3)[nH]c2cc1OCCCN1CCCCC1` [Compound 214], in the test on r(CUG)12-MBNL1 complex (Table M), the half-maximal inhibitory concentration (IC50) came to 25.2 µM. The percent splicing rescue at 3 mg/kg with HSALR strain 20b mice [3] (setting [11]) was -31.6%; in the test with HSALR strain 20b mice [3] (setting [12]) it was -17.3%; in the test on HSALR strain 20b mice [3] (setting [13]), -5.1%; in the test on HSALR strain 20b mice [3] (setting [14]) it was -12.1%. Besides, the “MBNL1 % splicing rescue at 10 μM” value in test [1] was determined as 119.3%.
Turning to `CN(C)CCCOc1ccc2nc(-c3cnc(-c4nc5ccc(OCCCN(C)C)cc5[nH]4)cn3)[nH]c2c1` [Compound 274], in the test with r(CUG)12-MBNL1 complex (Table M), inhibition was half-maximal at 12 µM (IC50). Besides, the percent splicing rescue at 3 mg/kg in the test on HSALR strain 20b mice [3] (setting [11]) was 31.6%; with HSALR strain 20b mice [3] (setting [12]) it was 25.2%; in the test on HSALR strain 20b mice [3] (setting [13]), 10.7%; with HSALR strain 20b mice [3] (setting [14]) it was 29.8%. Besides, the “MBNL1 % splicing rescue at 10 μM” value in test [1] is given as 65.3%.
Compound `CN(C)CCCOc1cc2[nH]c(-c3ccc(-c4nc5cc(F)c(OCCCN(C)C)cc5[nH]4)cc3)nc2cc1F` [Compound 277, (3-[[2-(4-[6-[3-(dimethylamino)propoxy]-5-fluoro-1H-1,3-benzodiazol-2-yl]phenyl)-5-fluoro-1H-1,3-benzodiazol-6-yl]oxy]propyl)dimethylamine; 2-hydroxypropane-1,2,3-tricarboxylic acid] had an IC50 in the test on r(CUG)12-MBNL1 complex (Table M) of 8.29 µM. The percent splicing rescue at 3 mg/kg with HSALR strain 20b mice [3] (setting [11]) worked out at 30.3%; in the test on HSALR strain 20b mice [3] (setting [12]), 19.9%; with HSALR strain 20b mice [3] (setting [13]), 13.2%; with HSALR strain 20b mice [3] (setting [14]), 24.2%. Besides, the “MBNL1 % splicing rescue at 10 μM” value in test [1] was found to be 51.0%.
Take `CN(C)CCCOc1ccc(-c2nc3cc(-c4ccc5[nH]c(-c6ccc(C(=O)NCCN(C)C)cc6)nc5c4)ccc3[nH]2)cc1` [Compound 346]: 6.45 µM corresponded to half-maximal inhibition in the test with r(CUG)12-MBNL1 complex (Table M) (IC50). In addition, the “MBNL1 % splicing rescue at 1 μM” value in test [1] worked out at 79.9%. In addition, in test [1], the “MBNL1 % splicing rescue at 10 μM” value is on record as 74.8%. In addition, the results for the percent splicing rescue at 7.5 mg/kg in the test with HSALR strain 20b mice [2] (setting [8]), with HSALR strain 20b mice [2] (setting [9]) and in the test on HSALR strain 20b mice [2] (setting [10]) were 105%, 11.8% and 22.3%, respectively.
In turn, `C[C@@H](NC(=O)CNCCCn1cc(CCCCN(C)CCNC(=O)c2ccc(-c3nc4cc(-c5ccc6[nH]c(-c7ccc(OCCCN(C)C)cc7)nc6c5)ccc4[nH]3)cc2)nn1)C(=O)N[C@H](C)C(=O)N[C@H](C)C(=O)N[C@H](C)C(=O)N(CCCn1cc(CCCCN(C)CCNC(=O)c2ccc(-c3nc4cc(-c5ccc6[nH]c(-c7ccc(OCCCN(C)C)cc7)nc6c5)ccc4[nH]3)cc2)nn1)CC(N)=O` [Compound 461] showed an IC50 with r(CUG)12-MBNL1 complex (Table M) of 2.5 µM. In test [1], the “MBNL1 % splicing rescue at 10 μM” value is on record as −35.5%.
